Columns and labels:
[1] = system: thrombin; assay: Steady-state inhibition kinetics by clotting time assay (Ki); format: biochemical; conditions: constant thrombin, varying fibrinogen concentration
Protocol: The inhibition constants (Ki s) and mode of inhibition of the aptamer analogs were determined through steady-state inhibition kinetics using a clotting time assay with constant thrombin concentration and varying the fibrinogen concentration in the presence of aptamer, control DNA, or no DNA. […] The data is consistent with a non-competitive mode of inhibition.

[2] = system: thrombin; assay: Clotting time for thrombin-catalyzed conversion of fibrinogen to fibrin; format: biochemical; conditions: 7-mer at 20 μM; thrombin 10 nM; thrombin alone 24 sec
Protocol: Clotting time for the thrombin-catalyzed conversion of fibrinogen (2.0 mg/ml in selection buffer) to fibrin at 37° C. was measured using a precision coagulation timer apparatus (Becton-Dickinson, Cat. Nos. 64015, 64019, 64020). Thrombin (10 nM) incubated with fibrinogen alone clotted in 40 sec, thrombin incubated with fibrinogen and P1 nuclease (Boehringer-Mannheim, Indianapolis, Ind.) clotted in 39 sec, thrombin incubated with fibrinogen and aptamer clone #5 (200 nM) clotted in 115 sec, and thrombin incubated with fibrinogen, clone #5 (200 nM) and P1 nuclease clotted in 40 sec. All incubations were carried out at 37° C. using reagents prewarmed to 37° C. Aptamer DNA or, when present, P1 nuclease, was added to the fibrinogen solution prior to addition of thrombin.
Inhibition of thrombin activity was studied using a consensus-related sequence 7-mer, 5' GGTTGGG 3' (SEQ ID NO:15), or a control 7-mer with the same base composition but different sequence (5' GGGGGTT 3' ) (SEQ ID NO:16). Clotting times were measured using the timer apparatus as above. The thrombin clotting time in this experiment was 24 sec using thrombin alone (10 nM), 26 sec with thrombin and the control sequence at 20 μM and 38 sec with thrombin plus the consensus sequence at 20 μM, indicating specificity for thrombin inhibition at the level of the 7-mer.

[3] = system: human thrombin; assay: Thrombin clotting-time assay on rat plasma after injection; format: in vivo; conditions: rats, injected through catheter
Protocol: (§1) A 15-mer single-stranded deoxynucleotide, 5' GGTTGGTGTGGTTGG 3' (SEQ ID NO:19), identified as a consensus sequence from 30 thrombin aptamer clones as described in Example 4 above was used. Young adult rats of mixed gender and strain were used. The animals were anesthetized and a diester of the 15-mer was injected through a catheter in 200 μl volumes (in 20 mM phosphate buffer, pH 7.4, 0.15M NaCl) at two concentrations, so that the final concentration of 15-mer in the blood was about 0.5 and 5.0 μM respectively, although the exact concentration depends on the volume of distribution which is unknown for this oligonucleotide. These values are 10 to 100 times greater than the human in vitro Kd value. No heparin was used for catheterization.
(§2) At 0, 5, 20 and 60 minutes, blood was withdrawn from the animals (approx. 500 μl aliquots) and transferred into tubes containing 0.1 volume citrate buffer and centrifuged. Rat plasma was removed and tested in a thrombin clotting-time assay. Six animals were used at each concentration,and three animals were injected with the control carrier solution containing no 15-mer.

[4] = system: thrombin; assay: Extent of thrombin inhibition with varying DNA concentration; format: biochemical
Source text: Independent verification of the Ki for the nonmodified 15-mer was made by determining the extent of thrombin inhibition with varying DNA concentration.

[5] = Half-life in rats; format: in vivo, rat; conditions: injected through catheter
Protocol: as §1, §2
(§3) Thus, the 15-mer in blood withdrawn from rats 5 minutes post-injection was able to inhibit exogenously added human thrombin. […] The half-life of the 15-mer in rats appears to be about 5 minutes or less.

[6] = system: rat blood coagulation; assay: APTT test after injection in rats; format: in vivo; conditions: 5 minute time point
Protocol: as §3

Row | Substance | Ki [1] [µM] | other results
1 | GG(dU)TGGTGTGG(dU)TGG (DNA GGNTGGTGTGGNTGG) [15-mer thrombin aptamer analog with uracil (dU) in place of thymine] | 0.08 | –
2 | 5' GGGGGTT 3' (chemistry not given here) [reference compound] | – | Clotting time [2]: 26 s
3 | 5' GGTTGGG 3' (chemistry not given here) | – | Clotting time [2]: 38 s
4 | GGTTGG(dU)G(dU)GGTTGG (DNA GGTTGGNGNGGTTGG; dU in place of thymine) [15-mer thrombin aptamer analog with uracil (dU) in place of thymine] | 0.015 | –
5 | GGTTGGTGTGGTU'GG (DNA GGTTGGTGTGGTNGG; 5-pentynyluracil, further chemistry not given here) [15-mer thrombin aptamer analog; U' indicates 5-pentynyluracil] | 0.02 | –
6 | 5' GGTTGGTGTGGTTGG 3' | 0.02 | clotting time of rat plasma ([3]; about 0.5 and 5.0 μM in blood, 5 minute time point): prolonged clotting time; activity in clotting-time assay of rat plasma ([3]; 20 minutes): Little or no activity; concentration giving 50% inhibition of thrombin activity [4]: approximately the same concentration as the derived Ki; half-life [5]: ≤ 5 min; APTT test [6]: inhibited rat blood coagulation
7 | GGTTGGTGTGGTT*G*G | 0.04 | –
8 | GGTTGGTGTGGTTGG#G#T (DNA GGTTGGTGTGGTTGGGT; MEA linkages, chemistry not fully specified) [closely related 17-mer thrombin aptamer analog; # indicates a MEA linkage] | 0.035 | –
9 | G*G*T*T*G*G*T*G*T*G*G*T*T*G*G | 0.28 | –
